Patent publication US7166472B2, “Method for the identification of agents that inhibit or promote cataracts and uses thereof” (The General Hospital Corporation, priority 2000, dated 2007)
Changes are numbered by the printed parent chain.

Legend:
[1] = Metal reduction assay, Cu(II) to Cu(I) (BC/BCA indicator); assay type: biochemical; conditions: test compound 10 μM, Cu(II)-glycine 25 μM, PBS pH 7.4, 37° C., dark, one hour
Procedure: Metal Reduction Assays—Assays were performed using a 96-well microtiter plate (Costar, Mass.). Test compounds from the kynurenine pathway (10 μM) or, as a positive control, ascorbic acid (ASC, 10 μM) were co-incubated with either Fe(III)-citrate (25 μM) and the Fe(II) indicator bathophenanthroline disulfonic acid (BP, 250 μM), or Cu(II)-glycine (25 μM) and the Cu(I) indicator bathocuproine disulfonic acid (BC) or bicinchoninic acid (BCA, 250 μM). Incubations were conducted in PBS, pH 7.4, at 37° C. in the dark for one hour. Absorbencies were then measured using a plate reader (SPECTRAmax Plus, Molecular Devices, CA) at the appropriate wavelengths: Fe(II)-BP complex at 535 nm (the known molar absorption coefficient, M535,=22140 M^−1 cm^−1), Cu(I)-BC complex at 483 nm, M483=12250 M^−1cm^−1), or Cu(I)-BCA complex at 562 nm, M562=7700 M^−1cm^−1). In control samples, absorbance from the metal ion and indicator in the absence of test compound and the absorbance of test compound in the presence of metal ions, but in the absence of indicator, were determined. The absorbencies from these controls were deducted from those obtained in the presence of the test compound, metal and indicator to yield the net absorbance (ΔA). Fe(II) or Cu(I) concentrations (μM) were calculated according to the formula: C(μM)=ΔA*10^6/Mλ.
The compounds comprising the kynurenine pathway (FIG. 1) were assayed for their ability to reduce […] and Cu(II) (FIG. 2A). […] Values represent the mean±SD for three independent measurements.

αB-crystallin = target: T1, αB-crystallin (Bos taurus, UniProt P02510); experiment: αB-crystallin cross-linking in total calf lens protein (Western blot); conditions: metabolite 10 μM, five days 37° C. dark
T1 sequence (P02510 1-175): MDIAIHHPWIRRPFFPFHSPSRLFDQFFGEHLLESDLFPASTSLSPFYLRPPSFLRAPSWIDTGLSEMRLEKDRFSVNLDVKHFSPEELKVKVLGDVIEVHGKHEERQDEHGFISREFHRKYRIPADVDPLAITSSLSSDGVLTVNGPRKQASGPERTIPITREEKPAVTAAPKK

[2] = target: T2, recombinant human αB-crystallin (Homo sapiens, UniProt P02511); experiment: Recombinant human αB-crystallin cross-linking (SDS-PAGE, silver stain); assay type: biochemical; conditions: 5 days 37° C. dark
T2 construct: gift of Dr. J. Liang, Brigham and Women's Hospital
T2 sequence (P02511 1-175): T1 sequence (P02510 1-175) with A40T, I61F, A132T, A152V
Procedure: Various solutions containing 3-HK (10 μM) or other kynurenine pathway metabolites (10 μM), Cu(II)-glycine (10 μM), Fe(III)-citrate (10 μM), and triethylenetetramine (TETA, 200 μM), were added in combinations as indicated. […] After incubation, aliquots of the total lens protein solutions were mixed with sample buffer containing 4% SDS and 5% β-mercaptoethanol, heated to 95° C. for 5 minutes, and loaded at 1 μg/lane on a 10–20% Tricine gel (Novex, San Diego, Calif.). […] For the experiments with recombinant αB-crystallin, aliquots of the protein solutions were mixed with sample running buffer containing NuPAGE sample buffer (Novex, San Diego, Calif.) and 10% β-mercaptoethanol, heated to 95° C. for 5 minutes, spun briefly, then loaded on a NuPAGE 4–12% Bis-Tris polyacrylamide gel at 375 ng/lane and electrophoresed with denaturing 3-(N-morpholino)propanesulfonic acid (MOPS)-SDS running buffer according to the manufacturer's recommendations.
To exclude the effects of other lens proteins on the observed findings in FIG. 5, these interactions with purified recombinant human αB-crystallin were examined.

[3] = Superoxide assay (dihydroethidium fluorometric); assay type: biochemical; conditions: test compound 10 μM
Procedure: Superoxide Assay—The fluorometric assay for superoxide is based upon the dihydroethidium (DHE, HYDROETHDNE™) method (Molecular Probes, Eugene, Oreg.) and used according to the manufacturer's instructions. DHE (1 mM) was freshly prepared in 100% argon-sparged DMSO. The reaction solutions were carried out in PBS, pH 7.4, under ambient gas conditions, in 96-well format plates and contained a test compound (KYN, 3-HK, 3-HAA, and ANA, each at 10 μM), DHE (100 μM), +/− Cu(II)-glycine (1 μM) and incubated at 37EC for 60 minutes. […] Abolition of the reading by co-incubation with superoxide dismutase (1000 U/ml) was used for establishing superoxide specificity. The fluorescent readings were recorded by a Packard FLUOROCOUNT™ fluorescent plate reader with a 510 nm excitation filter and 590 nm emission filter. Potassium superoxide dissolved in degassed DMSO was used as a positive control.

Q: What does the source list for `Nc1c(O)cccc1C(=O)CC(N)C(=O)O` (stereo not shown) [3-HK, 3-hydroxykynurenine]?
A: reduction of Cu(II) [1]: 100%; αB-crystallin cross-linking in the presence of Cu(II) (αB-crystallin; Cu(II) 10 μM): dramatically enhanced; αB-crystallin cross-linking (αB-crystallin; no added Cu(II)): apparent dimers and higher order oligomers were observed; αB-crystallin cross-linking ([2]; metabolite 10 μM alone): apparent dimeric and higher order oligomers were observed; αB-crystallin cross-linking with Cu(II) ([2]; metabolite 10 μM and Cu(II) 10 μM): monomeric and apparent dimeric αB-crystallin species were depleted and a prominent high molecular weight smear was observed; effect of Cu(II) on superoxide generation ([3]; Cu(II)-glycine 1 μM): did not promote; superoxide production ([3]; ambient oxygen, dark, 60 minutes): negligible
